Assay results taken from patent US7462605B2, “Phosphoramidate compounds and methods of use” (Celmed Oncology (USA), Inc., priority 2002, dated 2008).
Where two headings read alike, the source gives them in different places.

Columns and labels:
[1] = tested on: NPRSC (Prostate) normal cells; test: alamarBlue growth inhibition, NPRSC; assay type: cell-based, human; details: 120 hours
Experimental: (§1) Growth Inhibition Studies. Cells growing exponentially were transferred to 384-well flat bottom tissue culture plates. All cell types were plated at a density of 500 cells per well in 25 μL of complete medium (RPMI 1640+10% fetal bovine serum+antibiotics/antimycotics). After 24 hours (day 0), 25 μL of complete medium containing the experimental compounds over the dose range of 10^ñ3 to 10^ñ10 M were added in triplicate. […] 5 μL of the redox indicator, alamarBlue, was added to each well (10% v/v). After 4 hours incubation at 37° C., fluorescence was monitored at 535 nm excitation and 595 nm emission.
(§2) Concentration vs. relative fluorescence units (RFU) were plotted, and sigmoid curves were fit using the Hill equation.

[2] = tested on: COLO320 (Colon) tumor cells; test: alamarBlue growth inhibition, COLO320; assay type: cell-based, human; details: 120 hours
Experimental: as §1, §2

[3] = tested on: COLO205 (Colon) tumor cells; test: alamarBlue growth inhibition, COLO205; assay type: cell-based, human; details: 120 hours
Experimental: as §1, §2

[4] = tested on: SKCO1 (Colon) tumor cells; test: alamarBlue growth inhibition, SKCO1; assay type: cell-based, human; details: 120 hours
Experimental: as §1, §2

[5] = tested on: MDAMB361 (Breast) tumor cells; test: alamarBlue growth inhibition, MDAMB361; assay type: cell-based, human; details: 120 hours
Experimental: as §1, §2

[6] = tested on: MDAMB468 (Breast) tumor cells; test: alamarBlue growth inhibition, MDAMB468; assay type: cell-based, human; details: 120 hours
Experimental: as §1, §2

[7] = tested on: SW527 (Breast) tumor cells; test: alamarBlue growth inhibition, SW527; assay type: cell-based, human; details: 120 hours
Experimental: as §1, §2

[8] = tested on: PC3 (Prostate) tumor cells; test: alamarBlue growth inhibition, PC3; assay type: cell-based, human; details: 120 hours
Experimental: as §1, §2

[9] = tested on: HEPG2 (Liver) tumor cells; test: alamarBlue growth inhibition, HEPG2; assay type: cell-based, human; details: 120 hours
Experimental: as §1, §2

[10] = tested on: SKHEP1 (Liver) tumor cells; test: alamarBlue growth inhibition, SKHEP1; assay type: cell-based, human; details: 120 hours
Experimental: as §1, §2

A431 (Skin) tumor cells = test: alamarBlue growth inhibition, A431; assay type: cell-based, human; details: 120 hours
Experimental: as §1, §2

[11] = tested on: normal and tumor cell types; test: cells; details: for IC50: read-out: IC50 (μM), Average
Experimental: Growth Inhibition Studies. Cells growing exponentially were transferred to 384-well flat bottom tissue culture plates. All cell types were plated at a density of 500 cells per well in 25 μL of complete medium (RPMI 1640+10% fetal bovine serum+antibiotics/antimycotics). After 24 hours (day 0), 25 μL of complete medium containing the experimental compounds over the dose range of 10^ñ3 to 10^ñ10 M were added in triplicate. Drug exposure time was 120 hours (day 5), after which growth inhibition was assayed. 5 μL of the redox indicator, alamarBlue, was added to each well (10% v/v). After 4 hours incubation at 37° C., fluorescence was monitored at 535 nm excitation and 595 nm emission.
as §2
Assays were carried out as described in Methods, above. Therapeutic index is calculated as the ratio of the average IC50 for normal cells to the average IC50 for tumor cells. All assays were done at least three times.

[12] = tested on: MCF7 TDX (Tomudex-resistant MCF7 breast cancer cells); test: alamarBlue cytotoxicity, MCF7 TDX; assay type: cell-based, human
Experimental: as §1, §2
Reversal of Resistance. The origin and characteristics of the human breast cancer MCF7 TDX cell line have been previously described (Drake, et al. (1996)). Briefly, MCF-7 breast cancer cells were selected in vitro for resistance to Tomudex by continuous exposure to stepwise increases in TDX concentrations up to 2.0 μM. […] After a dramatic initial cell killing effect, resistant colonies emerged, and vigorously growing monolayers were formed. TS protein level and IC50 for 5-FU, TDX, and NB1011 were determined for the resultant MCF7 TDX/1011 cell line as described in above by western blot and the alamarBlue cytotoxicity assay, respectively.

H630 colon cancer cells = test: alamarBlue cytotoxicity, H630 parental; assay type: cell-based, human; details: Drug Selection None, read-out: NB1011-IC50
Experimental: as §1, §2
(§3) Cells were grown and characterized as described above. TS expression level is relative to CCD18co, a normal colon epithelial cell line. Tritium release is background substracted as described in Methods. ND=Not detectable above background.

RKO colon cancer cells = test: alamarBlue cytotoxicity, RKO parental; assay type: cell-based, human; details: Drug Selection None, read-out: NB1011-IC50
Experimental: as §1, §2, §3

[13] = tested on: N1S1 cells, 5FU selection; test: alamarBlue cytotoxicity, N1S1 5FU-selected; assay type: cell-based; details: N1S1, Drug Selection 5FU; read-out: NB1011-IC50
Experimental: as §1, §2, §3

[14] = tested on: CCD18co normal colon epithelial cells; test: Thymidine rescue, alamarBlue cytotoxicity; assay type: cell-based, human; details: in the presence of 10 μM thymidine
Text: An additional approach was taken to understanding whether NB1011 might interfere with cell growth primarily by inactivating TS. This approach is based upon thymidine rescue of TS-blocked cells. […] For this reason, they survive only by scavenger mechanisms. One of the important scavenger mechanisms is utilization of extracellular thymidine. Thymidine incorporated by target cells can be converted to dTMP, usually by thymidine kinase, and thus continue DNA synthesis. Other pathways for use of exogenous thymidine have also been described If an important mechanism for NB1011 activity is via inhibition of endogenous TS, then the cytotoxicity should be relieved when thymidine is added to the cell culture media. For this experiment, a number of tumor cell lines were screened for their sensitivity to Tomudex and 5FdUrd, and ability to be rescued from these agents via thymidine supplementation. […] Experiments were carried out as described by (Patterson, et al. (1998)) with or without 10 μM thymidine, except that the alamarBlue assay was employed to determine cytotoxicity.

[15] = tested on: TDX-resistant MCF7 breast tumor cells; test: Tomudex inhibition of NB1011 cytotoxicity (Tomudex rescue assay, alamarBlue); details: for IC50: read-out: NB1011 IC50
Experimental: Tomudex Inhibition of NB1011 Cytotoxicity. MCF7-TDX were transferred to a 384 well assay plate at 500 cells in 25 μL complete medium per well. After 24 hours (day 0), 25 μL complete medium containing a combination of NB1011 in doubling serial dilutions from 1 mM and tomudex at discrete concentrations (0,1,10,100,1000 nM) were added in duplicate. Drug exposure time was 120 hours (day 5) after which growth inhibition was measured with alamarBlue as described above in Growth Inhibition Studies (above).
Tomudex is a chemotherapeutic that acts primarily via inhibition of TS. If NB1011 exerts cytotoxicity via the TS enzyme, then inhibition of TS with Tomudex should decrease NB1011-mediated cytotoxicity. […] Cells were plated and exposed to indicated concentrations of compound(s) as described above.

5-(2-Bromovinyl)-2′-deoxyuridine phenyl N-methoxy-L-alaninyl phosphoramidate [NB1011]
IC50 [1]: 369 µM
IC50 [2]: 401 µM
IC50 [3]: 105 µM
IC50 [4]: 184 µM
IC50 [5]: 365 µM
IC50 [6]: 172 µM
IC50 [7]: 431 µM
IC50 [8]: 184 µM
IC50 [9]: 704 µM
IC50 [10]: 247 µM
IC50 (A431 (Skin) tumor cells): 266 µM
improvement in therapeutic index as compared with 5-FU ([11]; (2)×(3)): 6 fold
more cytotoxic to tumor cells vs. normal cells ([11]; overall, panel): about 2 fold
IC50 ([11]; average of the 11 normal cell types): 561 µM
IC50 ([11]; average of the 21 tumor cell lines): 288 µM
IC50 ([12]; MCF7 Breast cancer, Drug Selection TDX, read-out: NB1011-IC50): 2.8 µM
IC50 ([12]; MCF7 TDX, alamarBlue, read-out: IC50): 2 µM
IC50 (H630 colon cancer cells): 414 µM
IC50 (RKO colon cancer cells): 136 µM
IC50 [13]: 204 µM
IC50 [14]: 223 µM
inhibition of NB1011-mediated cytotoxicity by blockade of TS with Tomudex ([15]; maximum (up to)): about 25 fold
IC50 ([15]; [Tomudex] 0 nM): 5.7 µM
IC50 ([15]; [Tomudex] 1 nM): 25.5 µM
IC50 ([15]; [Tomudex] 10 nM): 87.7 µM
IC50 ([15]; [Tomudex] 100 nM): 140 µM
IC50 ([15]; [Tomudex] 1000 nM): 103 µM
